According to article PMC10794144, “A novel antibiotic class targeting the lipopolysaccharide transporter” (Nature, 2024):
Like-named read-outs stand apart in the source and are kept apart here.

Tested on: A. baumannii
Assay: microbe, parasite or virus in culture
Details: for MIC90 / MIC: Acinetobacter baumannii
Summary of the method: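 Standard broth microdilution per CLSI; diluted 0.5 McFarland inocula in cation-adjusted Mueller-Hinton broth; visual or OD600 endpoint.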

C[C@@H](O)[C@H]1C(=O)N2C(C(=O)O)=C(S[C@@H]3CN[C@H](C(=O)N(C)C)C3)[C@H](C)[C@H]12 [meropenem, reference compound]
4 mg/L: MIC (ATCC19606, read-out: MIC 100%, ATCC 19606, Study LGC284879, 100%) | MIC (ATCC19606, read-out: MIC 100%, ATCC 19606, Study LGC285582, 100%) | MIC (ATCC19606, read-out: MIC 100%, ATCC 19606, Study LGC299544, 100%) | MIC (ATCC19606, read-out: MIC 100%, ATCC 19606, Study LGC301026, 100%) | MIC (ATCC19606, read-out: MIC 100%, ATCC 19606, Study ROC013, 100%)
8 mg/L: MIC (ACC01085 / AR0307, CAMHB, MCPs read at 80% inhibition)
2 mg/L: MIC (ATCC19606, read-out: MIC 100%, ATCC 19606, Study LGC286210, 100%) | MIC (ATCC19606, read-out: MIC 100%, ATCC 19606, Study LGC293598, 100%) | MIC (ATCC19606, read-out: MIC 100%, ATCC 19606, Study LGC294355, 100%) | MIC (ATCC19606, read-out: MIC 100%, ATCC 19606, Study LGC295147, 100%) | MIC (ATCC19606, read-out: MIC 100%, ATCC 19606, Study LGC296813, 100%) | MIC (ATCC19606, read-out: MIC 100%, ATCC 19606, Study ROC007, 100%) | MIC (ATCC19606, read-out: MIC 100%, ATCC 19606, Study ROC009, 100%) | MIC (ATCC19606, read-out: MIC 100%, ATCC 19606, Study ROC010, 100%) | MIC (read-out: MIC 100%, ROB08701, Study LGC293598, 100%) | MIC (read-out: MIC 100%, ROB08701, Study LGC296813, 100%)
1 mg/L: MIC (ATCC19606, ATCC 19606, CAMHB, MCPs read at 80% growth inhibition) | MIC (ATCC19606, ATCC 19606, CAMHB, MCPs read at 80% inhibition) | MIC (ATCC19606, read-out: MIC 100%, ATCC 19606, Study LGC277937, 100%) | MIC (ATCC19606, read-out: MIC 100%, ATCC 19606, Study LGC279800, 100%) | MIC (ATCC19606, read-out: MIC 100%, ATCC 19606, Study LGC281440, 100%) | MIC (ATCC19606, read-out: MIC 100%, ATCC 19606, Study LGC282160, 100%) | MIC (ATCC19606, read-out: MIC 100%, ATCC 19606, Study LGC283932, 100%) | MIC (ATCC19606, read-out: MIC 100%, ATCC 19606, Study LGC284200, 100%) | MIC (ATCC19606, read-out: MIC 100%, ATCC 19606, Study LGC308175, 100%) | MIC (ATCC19606, read-out: MIC 100%, ATCC 19606, Study ROC003, 100%) | MIC (ATCC19606, read-out: MIC 100%, ATCC 19606, Study ROC004, 100%) | MIC (ATCC19606, read-out: MIC 100%, ATCC 19606, Study ROC005, 100%) | MIC (ATCC19606, read-out: MIC 100%, ATCC 19606, Study ROC006, 100%) | MIC (ATCC19606, read-out: MIC 100%, ATCC 19606, Study ROC008, 100%) | MIC (ROB08701, CAMHB, MCPs read at 80% inhibition) | MIC (read-out: MIC 100%, ROB08701, Study LGC277937, 100%) | MIC (read-out: MIC 100%, ROB08701, Study LGC279800, 100%) | MIC (read-out: MIC 100%, ROB08701, Study LGC281440, 100%) | MIC (read-out: MIC 100%, ROB08701, Study LGC282160, 100%) | MIC (read-out: MIC 100%, ROB08701, Study LGC282623, 100%) | MIC (read-out: MIC 100%, ROB08701, Study LGC283932, 100%) | MIC (read-out: MIC 100%, ROB08701, Study LGC284879, 100%) | MIC (read-out: MIC 100%, ROB08701, Study LGC285582, 100%) | MIC (read-out: MIC 100%, ROB08701, Study LGC286210, 100%) | MIC (read-out: MIC 100%, ROB08701, Study LGC294355, 100%) | MIC (read-out: MIC 100%, ROB08701, Study LGC295147, 100%) | MIC (read-out: MIC 100%, ROB08701, Study LGC299544, 100%) | MIC (read-out: MIC 100%, ROB08701, Study LGC301026, 100%) | MIC (read-out: MIC 100%, ROB08701, Study LGC308175, 100%) | MIC (read-out: MIC 100%, ROB08701, Study ROC003, 100%) | MIC (read-out: MIC 100%, ROB08701, Study ROC004, 100%) | MIC (read-out: MIC 100%, ROB08701, Study ROC005, 100%) | MIC (read-out: MIC 100%, ROB08701, Study ROC006, 100%) | MIC (read-out: MIC 100%, ROB08701, Study ROC007, 100%) | MIC (read-out: MIC 100%, ROB08701, Study ROC008, 100%) | MIC (read-out: MIC 100%, ROB08701, Study ROC009, 100%) | MIC (read-out: MIC 100%, ROB08701, Study ROC010, 100%) | MIC (read-out: MIC 100%, ROB08701, Study ROC013, 100%)
1 to 64 mg/L: MIC range (10 MDR isolates, CAMHB, MCPs read at 80% growth inhibition)
0.5 mg/L: MIC (ATCC17978, ATCC 17978, CAMHB, one replicate, MCPs read at 80% growth inhibition) | MIC (ATCC17978, read-out: MIC 100%, ATCC 17978, Study LGC308175, 100%) | MIC (ATCC19606, read-out: MIC 100%, ATCC 19606, Study LGC282623, 100%) | MIC (ATCC19606, read-out: MIC 100%, ATCC 19606, Study ROC012, 100%) | MIC (read-out: MIC 100%, ROB08701, Study ROC012, 100%)
0.12 mg/L: MIC (ATCCBAA747, ATCC BAA-747, CAMHB, MCPs read at 80% inhibition)
0.25 mg/L: MIC (ATCC17978, ATCC 17978, CAMHB, MCPs read at 80% inhibition) | MIC (ATCC17978, read-out: MIC 100%, ATCC 17978, Study LGC301026, 100%)
64 mg/L: MIC90 | MIC (read-out: MIC 100%, ROB08702, Study LGC282160, 100%)
32 mg/L: MIC (read-out: MIC 100%, ROB08701, Study LGC284200, 100%) | MIC (read-out: MIC 100%, ROB08702, Study LGC277937, 100%) | MIC (read-out: MIC 100%, ROB08702, Study LGC279800, 100%) | MIC (read-out: MIC 100%, ROB08702, Study LGC282623, 100%) | MIC (read-out: MIC 100%, ROB08702, Study LGC283932, 100%) | MIC (read-out: MIC 100%, ROB08702, Study LGC284200, 100%)
> 16 mg/L: MIC90 (129 clinical isolates, CAMHB) | MIC (ACC00445, CAMHB, MCPs read at 80% inhibition) | MIC (ACC00535, CAMHB, MCPs read at 80% inhibition) | MIC (ACC01077, CAMHB, MCPs read at 80% inhibition) | MIC (ROB08702, CAMHB, MCPs read at 80% inhibition) | MIC (ROB08703, CAMHB, MCPs read at 80% inhibition) | MIC (ROB08704, CAMHB, MCPs read at 80% inhibition) | MIC (ROB08705, CAMHB, MCPs read at 80% inhibition) | MIC (ROB08706, CAMHB, MCPs read at 80% inhibition) | MIC (ROB08707, CAMHB, MCPs read at 80% inhibition) | MIC (ROB08709, CAMHB, MCPs read at 80% inhibition) | MIC (ROB08710, CAMHB, MCPs read at 80% inhibition)
16 mg/L: MIC (ACC01073, CAMHB, MCPs read at 80% inhibition) | MIC (ROB08708, CAMHB, MCPs read at 80% inhibition) | MIC (read-out: MIC 100%, ROB08702, Study LGC281440, 100%)
